Reference: US9850283B2, “Macrocyclic inhibitors of the PD-1/PD-L1 and CD80(B7-1)/PD-L1 protein/protein interactions” (BRISTOL-MYERS SQUIBB COMPANY, priority 2013, dated 2017)
Like-named read-outs stand apart in the source and are kept apart here. Positions of bridges follow the written chain, without caps; N, C: chain ends. Non-standard residues stand in square brackets, D forms with d. Residues, ends and D or L forms follow the SMILES beside them. ξ: configuration not given here. Phe(F5) = N[C@@H](Cc1c(F)c(F)c(F)c(F)c1F)C(=O)O; Pro(4R-Bn) = O=C(O)[C@@H]1C[C@@H](Cc2ccccc2)CN1; Pro(4,4-F2) = O=C(O)[C@@H]1CC(F)(F)CN1; 1Nal = N[C@@H](Cc1cccc2ccccc12)C(=O)O; Bta = N[C@@H](Cc1csc2ccccc12)C(=O)O; Hyp = O=C(O)[C@@H]1C[C@@H](O)CN1; NMeF = CN[C@@H](Cc1ccccc1)C(=O)O; NMeNle = CCCC[C@H](NC)C(=O)O; NMeM = CN[C@@H](CCSC)C(=O)O; NMeA = CN[C@@H](C)C(=O)O; Orn = NCCC[C@H](N)C(=O)O; Dab = NCC[C@H](N)C(=O)O; Dap = NC[C@H](N)C(=O)O; ξhCys = NC(CCS)C(=O)O; ξC = NC(CS)C(=O)O; Sar = CNCC(=O)O

Tests used:
[1] = target: T1, LK35.2-hPD-L1 cells / PE-labeled PD-1-Ig (Homo sapiens, UniProt Q9NZQ7); assay: LK35.2-hPD-L1 cell binding high-content screening assay; type: cell-based; conditions: cluster symbol, read-out: CBA IC50 cluster
T1 construct: expressed in transfected cells; host or cells: LK35.2 mouse B cell line
Method in brief: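 Using overnight-cultured LK35.2-hPD-L1 mouse B cells, compound was co-incubated with phycoerythrin-tagged human PD-1-Ig (final 1 nM) at 37 °C for one hour. Unbound label was removed by triple dPBS washing prior to high-content image acquisition and analysis.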

Human PD-L1/PD-1 = target: T2, Human PD-L1/PD-1 (Homo sapiens, UniProt Q9NZQ7); assay: HTRF PD-1-Ig/PD-L1-His binding assay (human PD-L1); conditions: cluster symbol; read-out: HTRF IC50 cluster
T2 construct: made in house; host or cells: HEK293T
Method in brief: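 Steps: truncated PD-1-Ig and PD-L1-His fusions are incubated in dPBS containing 0.1% (w/v) BSA and 0.05% (v/v) Tween-20. Detection antibodies are then added (Eu cryptate anti-Ig at 1 nM final, APC anti-His at 20 nM final), and time-resolved FRET is measured.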

[2] = cell binding assay, cell line not given
[3] = cell line of CBA not given (LK35.2-hPD-L1 or 293T-hPD-L1)

T2 sequence (Q9NZQ7 with tags, fused parts or gaps): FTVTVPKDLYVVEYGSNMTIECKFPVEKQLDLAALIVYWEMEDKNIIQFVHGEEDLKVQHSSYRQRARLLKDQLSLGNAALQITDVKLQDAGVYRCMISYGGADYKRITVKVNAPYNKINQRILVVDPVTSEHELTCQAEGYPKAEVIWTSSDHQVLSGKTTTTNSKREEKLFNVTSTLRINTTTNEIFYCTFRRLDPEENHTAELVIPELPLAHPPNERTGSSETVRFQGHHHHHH
T1 sequence (Q9NZQ7 19-290): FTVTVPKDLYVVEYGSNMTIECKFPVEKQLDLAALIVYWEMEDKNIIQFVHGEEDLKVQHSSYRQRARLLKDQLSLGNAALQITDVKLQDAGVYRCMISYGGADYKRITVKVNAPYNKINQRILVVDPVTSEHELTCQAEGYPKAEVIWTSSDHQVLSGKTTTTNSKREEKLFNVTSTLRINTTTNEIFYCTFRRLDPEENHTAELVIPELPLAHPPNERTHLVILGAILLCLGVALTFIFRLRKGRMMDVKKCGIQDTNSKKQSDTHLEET

| SMILES | IC50 [1, 2] | IC50 (Human PD-L1/PD-1) | IC50 [1, 3] |
| --- | --- | --- | --- |
| CCCC[C@H]1C(=O)N(C)[C@@H](CCCC)C(=O)N[C@@H](CCC(=O)O)C(=O)N[C@H](C(=O)NCC(N)=O)CSCC(=O)N[C@@H](Cc2ccc(O)cc2)C(=O)N(C)[C@@H](C)C(=O)N[C@@H](CC(=O)O)C(=O)N2CCC[C@H]2C(=O)N[C@@H](Cc2c[nH]cn2)C(=O)N[C@@H](CCCCN)C(=O)N2C[C@H](Cc3ccccc3)C[C@H]2C(=O)N[C@@H](Cc2c[nH]c3ccccc23)C(=O)N[C@@H](CCCCN)C(=O)N[C@@H](Cc2c[nH]c3ccccc23)C(=O)N1C [Example 13010] ({CH2CO}-Y[NMeA]DPHK[Pro(4R-Bn)]WKW[NMeNle][NMeNle]ECG-NH2; thioether N-14) | 0.158 to 4.71 nM | 0.385 to 6.74 nM | – |
| CCCC[C@H]1C(=O)N(C)[C@@H](CCCC)C(=O)N[C@@H](C)C(=O)N[C@H](C(=O)NCC(N)=O)CSCC(=O)N[C@@H](Cc2ccc(O)cc2)C(=O)N(C)[C@@H](C)C(=O)N[C@@H](CC(=O)O)C(=O)N2CCC[C@H]2C(=O)N[C@@H](Cc2cnc[nH]2)C(=O)N[C@@H](CC(C)C)C(=O)N2C[C@H](O)C[C@H]2C(=O)N[C@@H](Cc2c[nH]c3ccccc23)C(=O)N[C@@H](CO)C(=O)N[C@@H](Cc2c[nH]c3ccccc23)C(=O)N1C [Example 1165] | – | 0.385 to 6.74 nM | 0.158 to 4.71 nM |
| CCCC[C@H]1C(=O)N(C)[C@@H](CCCC)C(=O)N[C@@H](CCCNC(=N)N)C(=O)N[C@@H](C(=O)NCC(N)=O)CSCC(=O)N[C@@H](Cc2ccccc2)C(=O)N(C)[C@@H](C)C(=O)N[C@@H](CC(N)=O)C(=O)N2CCC[C@H]2C(=O)N[C@@H](Cc2cnc[nH]2)C(=O)N[C@@H](CC(C)C)C(=O)N(C)CC(=O)N[C@@H](Cc2c[nH]c3ccccc23)C(=O)N[C@@H](CO)C(=O)N[C@@H](Cc2cccc3ccccc23)C(=O)N1C [Example 1002] ({CH2CO}-F[NMeA]NPHL[Sar]WS[1Nal][NMeNle][NMeNle]R[dC]G-NH2; thioether N-14) | – | 6.76 to 30.3 nM | 4.78 to 72.9 nM |
| CCCC[C@H]1C(=O)N[C@@H](CCCNC(=N)N)C(=O)N[C@H](C(=O)NCC(N)=O)CSCC(=O)N[C@@H](Cc2ccccc2)C(=O)N(C)[C@@H](C)C(=O)N[C@@H](CC(N)=O)C(=O)N2CCC[C@H]2C(=O)N[C@@H](Cc2cnc[nH]2)C(=O)N[C@@H](CC(C)C)C(=O)N(C)CC(=O)N[C@@H](Cc2c[nH]c3ccccc23)C(=O)N[C@@H](CO)C(=O)N[C@@H](Cc2c[nH]c3ccccc23)C(=O)N[C@@H](Cc2c(F)c(F)c(F)c(F)c2F)C(=O)N1C [Example 1058] ({CH2CO}-F[NMeA]NPHL[Sar]WSW[Phe(F5)][NMeNle]RCG-NH2; thioether N-14) | – | > 30.5 nM | > 74.3 nM |
| CCCC[C@H]1C(=O)N(C)[C@@H](CCCC)C(=O)N[C@@H](CCCNC(=N)N)C(=O)N[C@H](C(=O)NCC(N)=O)CSCC(=O)N[C@@H](Cc2ccccc2)C(=O)N(C)[C@@H](C)C(=O)N[C@@H](CC(N)=O)C(=O)N2CC(F)(F)C[C@H]2C(=O)N[C@@H](Cc2cnc[nH]2)C(=O)N[C@@H](CC(C)C)C(=O)N(C)CC(=O)N[C@@H](Cc2c[nH]c3ccccc23)C(=O)N[C@@H](CO)C(=O)N[C@@H](Cc2c[nH]c3ccccc23)C(=O)N1C [Example 1112] ({CH2CO}-F[NMeA]N[Pro(4,4-F2)]HL[Sar]WSW[NMeNle][NMeNle]RCG-NH2; thioether N-14) | – | > 30.5 nM | > 74.3 nM |
| CCCC[C@H]1C(=O)N(C)[C@@H](CCCC)C(=O)N[C@@H](CN)C(=O)N[C@H](C(=O)NCC(N)=O)CSCC(=O)N[C@@H](Cc2ccc(O)cc2)C(=O)N(C)[C@@H](C)C(=O)N[C@@H](CC(N)=O)C(=O)N2CCC[C@H]2C(=O)N[C@@H](CN)C(=O)N[C@@H](CCC(=O)O)C(=O)N2C[C@H](O)C[C@H]2C(=O)N[C@@H](Cc2c[nH]c3ccccc23)C(=O)N[C@@H](CCN)C(=O)N[C@@H](Cc2c[nH]c3ccccc23)C(=O)N1C [Example 5060] ({CH2CO}-Y[NMeA]NP[Dap]E[Hyp]W[Dab]W[NMeNle][NMeNle][Dap]CG-NH2; thioether N-14) | 4.78 to 72.9 nM | 0.385 to 6.74 nM | – |
| CCCC[C@H]1C(=O)N(C)[C@@H](CCCC)C(=O)N[C@@H](CCCNC(=N)N)C(=O)NC(C(=O)NCC(N)=O)CCSCC(=O)N[C@@H](Cc2ccc(O)cc2)C(=O)N(C)[C@@H](C)C(=O)N[C@@H](CC(N)=O)C(=O)N2CCC[C@H]2C(=O)N[C@@H](Cc2cnc[nH]2)C(=O)N[C@@H](CC(C)C)C(=O)N2C[C@H](O)C[C@H]2C(=O)N[C@@H](Cc2c[nH]c3ccccc23)C(=O)N[C@@H](CO)C(=O)N[C@@H](Cc2c[nH]c3ccccc23)C(=O)N1C (stereo partly shown) [Example 9021] ({CH2CO}-Y[NMeA]NPHL[Hyp]WSW[NMeNle][NMeNle]R[ξhCys]G-NH2; thioether N-14) | > 74.3 nM | 6.76 to 30.3 nM | – |
| CCCC[C@H]1C(=O)N(C)[C@@H](CCCC)C(=O)N[C@@H](CCCN)C(=O)N[C@H](C(=O)NCC(N)=O)CSCC(=O)N[C@@H](Cc2ccc(O)cc2)C(=O)N(C)[C@@H](C)C(=O)N[C@@H](CC(N)=O)C(=O)N2CCC[C@H]2C(=O)N[C@@H](CN)C(=O)N[C@@H](CC(C)C)C(=O)N2C[C@H](O)C[C@H]2C(=O)N[C@@H](Cc2c[nH]c3ccccc23)C(=O)N[C@@H](CCN)C(=O)N[C@@H](Cc2csc3ccccc23)C(=O)N1C [Example 1194] ({CH2CO}-Y[NMeA]NP[Dap]L[Hyp]W[Dab][Bta][NMeNle][NMeNle][Orn]CG-NH2; thioether N-14) | – | 0.385 to 6.74 nM | 0.158 to 4.71 nM |
| C=CCCCC[C@H]1C(=O)N(C)[C@@H](CCCCC=C)C(=O)N[C@@H](CCCNC(=N)N)C(=O)N[C@H](C(=O)NCC(N)=O)CSCC(=O)N[C@@H](Cc2ccccc2)C(=O)N(C)[C@@H](C)C(=O)N[C@@H](CC(N)=O)C(=O)N2CCC[C@H]2C(=O)N[C@@H](Cc2cnc[nH]2)C(=O)N[C@@H](CC(C)C)C(=O)N(C)CC(=O)N[C@@H](Cc2c[nH]c3ccccc23)C(=O)N[C@@H](CO)C(=O)N[C@@H](Cc2c[nH]c3ccccc23)C(=O)N1C [Example 1043] | – | 6.76 to 30.3 nM | 4.78 to 72.9 nM |
| CCCC[C@H]1C(=O)N(C)CC(=O)N[C@@H](CC(=O)O)C(=O)N[C@@H](C(C)C)C(=O)N(C)[C@@H](Cc2ccccc2)C(=O)N[C@@H](Cc2ccc(O)cc2)C(=O)N(C)CC(=O)N[C@@H](Cc2c[nH]c3ccccc23)C(=O)N[C@@H](Cc2ccc(O)cc2)C(=O)N[C@@H](CC(C)C)C(=O)N[C@H](C(=O)NCC(N)=O)CSCC(=O)N[C@@H](CCSC)C(=O)N(C)[C@@H](Cc2ccccc2)C(=O)N1C [Example 3172] (HELM PEPTIDE1{[O=C(C[*:3])[*:2]].M.[meF].[CCCC[C@@H](C(=O)[*:2])N(C)[*:1]].[Sar].D.V.[meF].Y.[Sar].W.Y.L.C.G.[am]}$PEPTIDE1,PEPTIDE1,1:R3-14:R3$$$V2.0) | – | > 30.5 nM | > 74.3 nM |
| CCCC[C@H]1C(=O)N(C)[C@@H](CCCC)C(=O)N[C@@H](CC(=O)O)C(=O)N[C@H](C(=O)NCC(N)=O)CSCC(=O)N[C@@H](Cc2ccccc2)C(=O)N(C)[C@@H](C)C(=O)N[C@@H](CC(=O)O)C(=O)N2CCC[C@H]2C(=O)N[C@@H](Cc2cnc[nH]2)C(=O)N[C@@H](CCCNC(=N)N)C(=O)N(C)CC(=O)N[C@@H](Cc2c[nH]c3ccccc23)C(=O)N[C@@H](CCCNC(=N)N)C(=O)N[C@@H](Cc2c[nH]c3ccccc23)C(=O)N1C [Example 1056] ({CH2CO}-F[NMeA]DPHR[Sar]WRW[NMeNle][NMeNle]DCG-NH2; thioether N-14) | – | 6.76 to 30.3 nM | 4.78 to 72.9 nM |
| CCCC[C@H]1C(=O)N(C)[C@@H](CCCC)C(=O)N[C@@H](CCCNC(=N)N)C(=O)N[C@H](C(=O)NCC(N)=O)CSCC(=O)N[C@@H](Cc2ccccc2)C(=O)N(C)[C@@H](C)C(=O)N[C@@H](CC(N)=O)C(=O)N2CCC[C@H]2C(=O)N[C@@H](Cc2cnc[nH]2)C(=O)N[C@@H](CC(C)C)C(=O)N(C)CC(=O)N[C@@H](Cc2c[nH]c3ccccc23)C(=O)N[C@@H](Cc2cnc[nH]2)C(=O)N[C@@H](Cc2c[nH]c3ccccc23)C(=O)N1C [Example 1068] ({CH2CO}-F[NMeA]NPHL[Sar]WHW[NMeNle][NMeNle]RCG-NH2; thioether N-14) | – | > 30.5 nM | > 74.3 nM |
| CCCC[C@H]1C(=O)N[C@@H](CCCNC(=N)N)C(=O)NC(C(=O)NCC(N)=O)CSCC(=O)N[C@@H](Cc2ccc(O)cc2)C(=O)N(C)[C@@H](C)C(=O)N[C@@H](CC(N)=O)C(=O)N2CCC[C@H]2C(=O)N[C@@H](CN)C(=O)N[C@@H](CC(C)C)C(=O)N2C[C@H](O)C[C@H]2C(=O)N[C@@H](Cc2c[nH]c3ccccc23)C(=O)N[C@@H](CO)C(=O)N[C@@H](Cc2csc3ccccc23)C(=O)N(C)[C@@H](CCSC)C(=O)N1C (stereo partly shown) [Example 9092] ({CH2CO}-Y[NMeA]NP[Dap]L[Hyp]WS[Bta][NMeM][NMeNle]R[ξC]G-NH2; thioether N-14) | 0.158 to 4.71 nM | 6.76 to 30.3 nM | – |
| CCCC[C@H]1C(=O)N(C)[C@@H](Cc2ccccc2)C(=O)N[C@@H](CN)C(=O)N[C@H](C(=O)NCC(N)=O)CSCC(=O)N[C@@H](Cc2ccc(O)cc2)C(=O)N(C)[C@@H](C)C(=O)N[C@@H](CC(N)=O)C(=O)N2CCC[C@H]2C(=O)N[C@@H](Cc2c[nH]cn2)C(=O)N[C@@H](CCC(=O)O)C(=O)N2C[C@H](O)C[C@H]2C(=O)N[C@@H](Cc2c[nH]c3ccccc23)C(=O)N[C@@H](CCN)C(=O)N[C@@H](Cc2c[nH]c3ccccc23)C(=O)N1C [Example 5147] ({CH2CO}-Y[NMeA]NPHE[Hyp]W[Dab]W[NMeNle][NMeF][Dap]CG-NH2; thioether N-14) | 4.78 to 72.9 nM | 0.385 to 6.74 nM | – |
